ChEMBL document CHEMBL5584355, “Harnessing Nitric Oxide-Donating Benzofuroxans for Targeted Inhibition of Carbonic Anhydrase IX in Cancer” (J Med Chem, 2024)

Key:
HEK293 [1] = test: Cytotoxicity against HEK293 cells assessed as inhibition of cell growth at 77 uM by celltiter-glo assay; format: toxicity, cell-based; conditions: human, hek293, 77 µM
Carbonic anhydrase 1 = Carbonic anhydrase 1 (Homo sapiens, UniProt P00915); test: Inhibition of human recombinant CA1 by phenol red dye based stopped flow CO2 hydration assay
Sequence of Carbonic anhydrase 1 (P00915 whole entry): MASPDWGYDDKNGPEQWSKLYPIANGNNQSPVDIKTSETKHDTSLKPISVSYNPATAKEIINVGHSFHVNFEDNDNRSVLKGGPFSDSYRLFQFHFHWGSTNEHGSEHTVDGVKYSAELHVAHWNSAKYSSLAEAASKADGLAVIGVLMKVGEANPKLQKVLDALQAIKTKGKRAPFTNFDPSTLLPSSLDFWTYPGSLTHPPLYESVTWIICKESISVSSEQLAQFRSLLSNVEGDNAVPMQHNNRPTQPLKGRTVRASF

Carbonic anhydrase 2 = Carbonic anhydrase 2 (Homo sapiens, UniProt P00918); test: Inhibition of human recombinant CA2 by phenol red dye based stopped flow CO2 hydration assay
Carbonic anhydrase 9 = Carbonic anhydrase 9 (Homo sapiens, UniProt Q16790); test: Inhibition of human recombinant CA9 by phenol red dye based stopped flow CO2 hydration assay
Carbonic anhydrase 12 = Carbonic anhydrase 12 (Homo sapiens, UniProt O43570); test: Inhibition of human recombinant CA12 by phenol red dye based stopped flow CO2 hydration assay
Sequence of Carbonic anhydrase 12 (O43570 whole entry): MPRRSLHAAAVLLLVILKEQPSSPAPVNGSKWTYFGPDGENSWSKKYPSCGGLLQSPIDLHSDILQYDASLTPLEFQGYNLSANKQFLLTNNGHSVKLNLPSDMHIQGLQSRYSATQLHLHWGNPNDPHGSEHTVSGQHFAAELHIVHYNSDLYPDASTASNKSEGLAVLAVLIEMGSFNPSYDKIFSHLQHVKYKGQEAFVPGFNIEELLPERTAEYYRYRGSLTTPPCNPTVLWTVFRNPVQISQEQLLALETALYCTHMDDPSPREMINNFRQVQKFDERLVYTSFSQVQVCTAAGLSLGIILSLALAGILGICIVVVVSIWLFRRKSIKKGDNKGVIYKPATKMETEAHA

HEK293 [2] = test: Cytotoxicity against HEK293 cells assessed as inhibition of cell growth at 46 uM by celltiter-glo assay; format: toxicity, cell-based; conditions: human, hek293, 46 µM
[3] = Toxicity in female C57BL6/J mouse assessed as hematic pH at 10 mg/kg, ip administered daily for 2 weeks and measured 1 hr post last dose (reference value: 7.1); format: organism-based; conditions: in vivo, 336 h

| SMILES | Ki (Carbonic anhydrase 1) | Ki (Carbonic anhydrase 9) | also measured |
| --- | --- | --- | --- |
| NS(=O)(=O)c1ccc(CCN(Cc2ccc(F)cc2)C(=O)c2ccc3c(c2)no[n+]3[O-])cc1 |  |  | Activity (HEK293 [1]): Non-Toxic |
| NS(=O)(=O)c1ccc(O)c(NC(=O)c2ccc3c(c2)no[n+]3[O-])c1 | 8450 nM | 61.1 nM |  |
| NS(=O)(=O)c1ccc(OC(=O)c2ccc3c(c2)no[n+]3[O-])cc1 | 736 nM | 38.7 nM |  |
| NS(=O)(=O)c1cccc(NC(=O)c2ccc3c(c2)no[n+]3[O-])c1 | 7660 nM | 41.5 nM |  |
| NS(=O)(=O)c1cc(C(=O)O)c(NCc2ccco2)cc1Cl [FUROSEMIDE] |  |  | pH [3]: 7.05 |
| O=C(OCCCOc1ccc2ccc(=O)oc2c1)c1ccc2c(c1)no[n+]2[O-] | > 10000 nM |  |  |
| NS(=O)(=O)c1ccc(CNC(=O)c2ccc3c(c2)no[n+]3[O-])cc1 | 83.1 nM | 37.9 nM |  |
| O=C(NCCOc1ccc2ccc(=O)oc2c1)c1ccc2c(c1)no[n+]2[O-] | > 10000 nM |  |  |
| N#CCCN(CCc1ccc(S(N)(=O)=O)cc1)C(=O)c1ccc2c(c1)no[n+]2[O-] |  | 20.3 nM |  |
| O=C(Oc1ccc2oc(=O)ccc2c1)c1ccc2c(c1)no[n+]2[O-] | > 10000 nM | 15.8 nM |  |
| NS(=O)(=O)c1ccc(CCNC(=O)c2ccc3c(c2)no[n+]3[O-])cc1 | 445 nM | 12.6 nM | Ki (Carbonic anhydrase 2): 90.1 nM; Ki (Carbonic anhydrase 12): 26.1 nM |

The remaining molecules from weak to strong by Ki (Carbonic anhydrase 9), led by results:

| Ki (Carbonic anhydrase 1) | Ki (Carbonic anhydrase 9) | SMILES | also measured |
| --- | --- | --- | --- |
| > 10000 nM | 2650 nM | O=C(O)c1ccc2c(c1)no[n+]2[O-] | Ki (Carbonic anhydrase 2): 8730 nM; Ki (Carbonic anhydrase 12): 995 nM |
|  | 304 nM | O=C(Oc1ccc2ccc(=O)oc2c1)c1ccc2c(c1)no[n+]2[O-] |  |
| > 10000 nM | 112 nM | O=C(OCCOc1ccc2ccc(=O)oc2c1)c1ccc2c(c1)no[n+]2[O-] |  |
| 792 nM | 69.7 nM | NS(=O)(=O)c1ccc(NC(=O)c2ccc3c(c2)no[n+]3[O-])cc1 |  |
|  | 48.5 nM | O=C(OCCCOc1ccc2oc(=O)ccc2c1)c1ccc2c(c1)no[n+]2[O-] |  |
|  | 23.6 nM | O=C(NCCOc1ccc2oc(=O)ccc2c1)c1ccc2c(c1)no[n+]2[O-] |  |
| 602 nM | 23.1 nM | NS(=O)(=O)c1ccc(CCN(Cc2ccco2)C(=O)c2ccc3c(c2)no[n+]3[O-])cc1 |  |
| 831 nM | 14.9 nM | NS(=O)(=O)c1ccc(CCN(CCc2ccccc2)C(=O)c2ccc3c(c2)no[n+]3[O-])cc1 |  |
| 618 nM | 10.4 nM | NS(=O)(=O)c1ccc(CCN(Cc2ccccc2)C(=O)c2ccc3c(c2)no[n+]3[O-])cc1 | Activity (HEK293 [2]): Non-Toxic; pH [3]: 6.9 |
